Measurements from patent publication US20190216761A1, “COMPOSITIONS COMPRISING 15-HEPE AND METHODS OF USING THE SAME” (Afimmune Limited, priority 2015, published 2019).
Marks after values point to notes of the source that are not given here.

Experiments:
Type in all cases: cell-based
rPPARγ [1] = molecular target: T1, rPPARγ (Rattus norvegicus, UniProt O88275); assay: PPAR antagonist reporter assay (reference agonist at EC80)
T1 construct: expressed in transfected cells
T1 sequence (O88275 238-503 limits assumed): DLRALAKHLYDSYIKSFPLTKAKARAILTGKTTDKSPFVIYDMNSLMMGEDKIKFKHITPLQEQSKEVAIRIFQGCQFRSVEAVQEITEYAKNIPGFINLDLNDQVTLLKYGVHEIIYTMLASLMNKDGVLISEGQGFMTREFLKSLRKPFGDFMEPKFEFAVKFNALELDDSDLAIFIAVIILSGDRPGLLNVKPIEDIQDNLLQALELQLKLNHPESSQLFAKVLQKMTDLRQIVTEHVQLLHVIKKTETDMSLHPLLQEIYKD
Procedure: (§1) This study utilized proprietary reporter cells expressing a hybrid receptor comprising the N-terminal Gal4 DNA binding domain fused to the ligand binding domain of the specific human nuclear receptor (hPPARα, hPPARδ, and hPPARγ) and rat nuclear receptor (rPPARα, rPPARδ, and rPPARγ). The reporter vectors used in this Example comprise the firefly luciferase gene functionally linked to the Gal4 upstream activation sequence.
(§2) Nuclear Receptor assay was performed by suspending Reporter Cells in CRM containing 10% charcoal stripped FBS. 2×-EC80 concentrations of the appropriate reference agonist were then added to the Reporter Cell suspension, and 100 μL of the mixture dispensed into wells of a white 96-well plate. Test compounds were diluted using compound screening medium (CSM) containing 10% charcoal stripped FBS to generate “2×-concentration” treatment media. Immediately after this dilution step, 100 μL of each diluted 2×-concentration treatment medium was dispensed (in triplicate) into the Reporter Cell-containing assay wells.
(§3) After incubation at 37° C. for 24 hours, the treatment media was discarded. Each well was rinsed once with LCM Buffer; LCM substrate was then added. After incubation for 30 minutes at 37° C., fluorescence was measured to determine the relative number of live cells per assay well. LCM substrate was then discarded and 100 μL of Luciferase Detection Reagent substrate was added to each well. RLUs were quantified from each well to determine nuclear receptor activities.

hPPARδ [2] = molecular target: T2, hPPARδ (Homo sapiens, UniProt Q03181); assay: as above
T2 construct: expressed in transfected cells
T2 sequence (Q03181 211-439 limits assumed): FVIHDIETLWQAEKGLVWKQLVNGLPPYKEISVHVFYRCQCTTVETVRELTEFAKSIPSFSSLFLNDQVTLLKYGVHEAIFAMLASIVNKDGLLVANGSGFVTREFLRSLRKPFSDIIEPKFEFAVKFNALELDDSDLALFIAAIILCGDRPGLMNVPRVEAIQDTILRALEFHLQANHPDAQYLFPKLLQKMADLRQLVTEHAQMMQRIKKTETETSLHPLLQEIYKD
Procedure: as §1, §2, §3

rPPARα = molecular target: T3, rPPARα (Rattus norvegicus, UniProt P37230); assay: as above
T3 construct: expressed in transfected cells
T3 sequence (P37230 239-466 limits assumed): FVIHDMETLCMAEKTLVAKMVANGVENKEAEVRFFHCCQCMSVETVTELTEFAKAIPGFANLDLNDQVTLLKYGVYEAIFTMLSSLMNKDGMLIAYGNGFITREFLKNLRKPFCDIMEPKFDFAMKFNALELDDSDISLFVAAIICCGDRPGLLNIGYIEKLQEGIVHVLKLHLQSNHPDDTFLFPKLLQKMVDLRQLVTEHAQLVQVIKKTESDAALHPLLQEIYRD
Procedure: as §1, §2, §3

hPPARα [3] = molecular target: T4, hPPARα (Homo sapiens, UniProt Q07869); assay: as above
T4 construct: expressed in transfected cells
T4 sequence (Q07869 239-466 limits assumed): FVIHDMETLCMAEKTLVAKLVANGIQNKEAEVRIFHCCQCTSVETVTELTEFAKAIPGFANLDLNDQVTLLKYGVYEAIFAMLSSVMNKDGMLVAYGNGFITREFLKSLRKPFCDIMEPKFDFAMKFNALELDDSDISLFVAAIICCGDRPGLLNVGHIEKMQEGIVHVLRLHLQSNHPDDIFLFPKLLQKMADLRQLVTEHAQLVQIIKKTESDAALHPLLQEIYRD
Procedure: as §1, §2, §3

rPPARγ [4] = molecular target: T1, rPPARγ; assay: PPAR agonist reporter assay (Gal4 hybrid receptor, luciferase)
hPPARδ [5] = molecular target: T2, hPPARδ; assay: as above
hPPARα [6] = molecular target: T4, hPPARα; assay: as above

CC/C=C\C/C=C\C/C=C\C/C=C\C/C=C\CCCC(=O)OCC [EPA-EE, EPA ethyl ester, reference compound]
% Inhibition of agonist-stimulated receptor activity vs. 0.10% DMSO, rPPAR-γ (rPPARγ [1]; 137 nM): 9.6% | % Inhibition of agonist-stimulated receptor activity vs. 0.10% DMSO, rPPAR-γ (rPPARγ [1]; 412 nM): −7.4% | % Inhibition of agonist-stimulated receptor activity vs. 0.10% DMSO, rPPAR-γ (rPPARγ [1]; 1,235 nM): −7.3% | % Inhibition of agonist-stimulated receptor activity vs. 0.10% DMSO, rPPAR-γ (rPPARγ [1]; 3,704 nM): −0.55% | % Inhibition of agonist-stimulated receptor activity vs. 0.10% DMSO, rPPAR-γ (rPPARγ [1]; 11,111 nM): 2.8% | % Inhibition of agonist-stimulated receptor activity vs. 0.10% DMSO, rPPAR-γ (rPPARγ [1]; 33,333 nM): 5.0% | % Inhibition of agonist-stimulated receptor activity vs. 0.10% DMSO, rPPAR-γ (rPPARγ [1]; 100,000 nM): 6.2% | % Inhibition of agonist-stimulated receptor activity vs. 0.10% DMSO, rPPAR-γ (rPPARγ [1]; 300,000 nM): 7.0% | inhibition of rat PPARs (in words), rPPARγ (rPPARγ [1]; at higher test concentrations): does not exhibit similar inhibitory activity | % Inhibition of agonist-stimulated receptor activity vs. 0.10% DMSO, hPPAR-δ (hPPARδ [2]; 137 nM): −3.4% | % Inhibition of agonist-stimulated receptor activity vs. 0.10% DMSO, hPPAR-δ (hPPARδ [2]; 412 nM): −8.9% | % Inhibition of agonist-stimulated receptor activity vs. 0.10% DMSO, hPPAR-δ (hPPARδ [2]; 1,235 nM): −5.5% | % Inhibition of agonist-stimulated receptor activity vs. 0.10% DMSO, hPPAR-δ (hPPARδ [2]; 3,704 nM): −15% | % Inhibition of agonist-stimulated receptor activity vs. 0.10% DMSO, hPPAR-δ (hPPARδ [2]; 11,111 nM): −7.9% | % Inhibition of agonist-stimulated receptor activity vs. 0.10% DMSO, hPPAR-δ (hPPARδ [2]; 33,333 nM): −18% | % Inhibition of agonist-stimulated receptor activity vs. 0.10% DMSO, hPPAR-δ (hPPARδ [2]; 100,000 nM): −6.8% | % Inhibition of agonist-stimulated receptor activity vs. 0.10% DMSO, hPPAR-δ (hPPARδ [2]; 300,000 nM): 11% | inhibition of human PPARs (in words), hPPARδ (hPPARδ [2]; at higher test concentrations): does not exhibit similar inhibitory activity | % Inhibition of agonist-stimulated receptor activity vs. 0.10% DMSO, rPPAR-α (rPPARα; 137 nM): 51% | % Inhibition of agonist-stimulated receptor activity vs. 0.10% DMSO, rPPAR-α (rPPARα; 412 nM): 20% | % Inhibition of agonist-stimulated receptor activity vs. 0.10% DMSO, rPPAR-α (rPPARα; 1,235 nM): 5.7% | % Inhibition of agonist-stimulated receptor activity vs. 0.10% DMSO, rPPAR-α (rPPARα; 3,704 nM): 4.2% | % Inhibition of agonist-stimulated receptor activity vs. 0.10% DMSO, rPPAR-α (rPPARα; 11,111 nM): −4.7% | % Inhibition of agonist-stimulated receptor activity vs. 0.10% DMSO, rPPAR-α (rPPARα; 33,333 nM): 1.4% | % Inhibition of agonist-stimulated receptor activity vs. 0.10% DMSO, rPPAR-α (rPPARα; 100,000 nM): 13% | % Inhibition of agonist-stimulated receptor activity vs. 0.10% DMSO, rPPAR-α (rPPARα; 300,000 nM): 36% | inhibition of rat PPARs (in words), rPPARα (rPPARα; at higher test concentrations): does not exhibit similar inhibitory activity | % Inhibition of agonist-stimulated receptor activity vs. 0.10% DMSO, hPPAR-α (hPPARα [3]; 137 nM): 35% | % Inhibition of agonist-stimulated receptor activity vs. 0.10% DMSO, hPPAR-α (hPPARα [3]; 412 nM): 20% | % Inhibition of agonist-stimulated receptor activity vs. 0.10% DMSO, hPPAR-α (hPPARα [3]; 1,235 nM): 18% | % Inhibition of agonist-stimulated receptor activity vs. 0.10% DMSO, hPPAR-α (hPPARα [3]; 3,704 nM): 17% | % Inhibition of agonist-stimulated receptor activity vs. 0.10% DMSO, hPPAR-α (hPPARα [3]; 11,111 nM): 11% | % Inhibition of agonist-stimulated receptor activity vs. 0.10% DMSO, hPPAR-α (hPPARα [3]; 33,333 nM): 10% | % Inhibition of agonist-stimulated receptor activity vs. 0.10% DMSO, hPPAR-α (hPPARα [3]; 100,000 nM): 7.1% | % Inhibition of agonist-stimulated receptor activity vs. 0.10% DMSO, hPPAR-α (hPPARα [3]; 300,000 nM): 2.8% | inhibition of human PPARs (in words), hPPARα (hPPARα [3]; at higher test concentrations): does not exhibit similar inhibitory activity | Fold-Activation (vs. 0.10% DMSO) rPPAR-γ (rPPARγ [4]; 137 nM): 0.90 fold | Fold-Activation (vs. 0.10% DMSO) rPPAR-γ (rPPARγ [4]; 412 nM): 0.94 fold | Fold-Activation (vs. 0.10% DMSO) rPPAR-γ (rPPARγ [4]; 1,235 nM): 0.99 fold | Fold-Activation (vs. 0.10% DMSO) rPPAR-γ (rPPARγ [4]; 3,704 nM): 0.97 fold | Fold-Activation (vs. 0.10% DMSO) rPPAR-γ (rPPARγ [4]; 11,111 nM): 0.97 fold | Fold-Activation (vs. 0.10% DMSO) rPPAR-γ (rPPARγ [4]; 33,333 nM): 0.99 fold | Fold-Activation (vs. 0.10% DMSO) rPPAR-γ (rPPARγ [4]; 100,000 nM): 1.0 fold | Fold-Activation (vs. 0.10% DMSO) rPPAR-γ (rPPARγ [4]; 300,000 nM): 2.1* fold | Fold-Activation (vs. 0.10% DMSO) hPPAR-δ (hPPARδ [5]; 137 nM): 1.2 fold | Fold-Activation (vs. 0.10% DMSO) hPPAR-δ (hPPARδ [5]; 412 nM): 1.2 fold | Fold-Activation (vs. 0.10% DMSO) hPPAR-δ (hPPARδ [5]; 1,235 nM): 1.3 fold | Fold-Activation (vs. 0.10% DMSO) hPPAR-δ (hPPARδ [5]; 3,704 nM): 1.5 fold | Fold-Activation (vs. 0.10% DMSO) hPPAR-δ (hPPARδ [5]; 11,111 nM): 1.4 fold | Fold-Activation (vs. 0.10% DMSO) hPPAR-δ (hPPARδ [5]; 33,333 nM): 1.8 fold | Fold-Activation (vs. 0.10% DMSO) hPPAR-δ (hPPARδ [5]; 100,000 nM): 2.6* fold | Fold-Activation (vs. 0.10% DMSO) hPPAR-δ (hPPARδ [5]; 300,000 nM): 3.8* fold | Fold-Activation (vs. 0.10% DMSO) hPPAR-α (hPPARα [6]; 137 nM): 0.88 fold | Fold-Activation (vs. 0.10% DMSO) hPPAR-α (hPPARα [6]; 412 nM): 1.0 fold | Fold-Activation (vs. 0.10% DMSO) hPPAR-α (hPPARα [6]; 1,235 nM): 0.90 fold | Fold-Activation (vs. 0.10% DMSO) hPPAR-α (hPPARα [6]; 3,704 nM): 0.89 fold | Fold-Activation (vs. 0.10% DMSO) hPPAR-α (hPPARα [6]; 11,111 nM): 0.86 fold | Fold-Activation (vs. 0.10% DMSO) hPPAR-α (hPPARα [6]; 33,333 nM): 0.95 fold | Fold-Activation (vs. 0.10% DMSO) hPPAR-α (hPPARα [6]; 100,000 nM): 1.1 fold | Fold-Activation (vs. 0.10% DMSO) hPPAR-α (hPPARα [6]; 300,000 nM): 2.0* fold
